ChEMBL document CHEMBL1135538, “Synthesis of N-glyoxyl prolyl and pipecolyl amides and thioesters and evaluation of their in vitro and in vivo nerve regenerative effects” (J Med Chem, 2002)

Key:
[1] = molecular target: Peptidyl-prolyl cis-trans isomerase FKBP1A (Homo sapiens, UniProt P62942); assay: Inhibitory activity against FK506 binding protein 12
Mus musculus [2] = assay: Percent recovery of tyrosine hydroxylase immunostaining in mice following 10 mg/kg p.o. administration after lesioning with MPTP.; assay type: functional, organism-based; set-up: dose 10 mg/kg; details: at 10 mg/kg
Gallus gallus = species on record: Gallus gallus; assay: In vitro promotion of fiber extension (neurite outgrowth) from cultured chick sensory neuron; assay type: functional; details: read-out: ED50 (the source's name)
Mus musculus [3] = assay: Percent recovery of tyrosine hydroxylase immunostaining after oral administration at dose 10 mg/kg concurrently with MPTP; assay type: functional, organism-based; set-up: dose 10 mg/kg
Mus musculus [4] = assay: Percent recovery of tyrosine hydroxylase immunostaining after peroral administration at dose 10 mg/kg after lesioning with MPTP (post-MPTP); assay type: functional, organism-based; set-up: dose 10 mg/kg
Mus musculus [5] = assay: Percent recovery of tyrosine hydroxylase immunostaining after oral administration at dose 10 mg/kg after lesioning with MPTP (post-MPTP); assay type: functional, organism-based; set-up: dose 10 mg/kg
Mus musculus [6] = assay: Percent recovery of vtyrosine hydroxylase immunostaining after oral administration at dose 10 mg/kg after lesioning with MPTP (post-MPTP); assay type: functional, organism-based; set-up: dose 10 mg/kg

Chain of Peptidyl-prolyl cis-trans isomerase FKBP1A (P62942 whole entry): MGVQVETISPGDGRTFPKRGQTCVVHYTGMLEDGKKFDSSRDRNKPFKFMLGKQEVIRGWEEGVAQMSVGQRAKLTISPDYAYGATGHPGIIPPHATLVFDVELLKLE

SMILES	Recovery (Mus musculus [2])	Recovery (Mus musculus [3])	also measured
CCC(C)(C)C(=O)C(=O)N1CCCC[C@H]1C(=O)NCCC(c1ccccc1)c1ccccc1	41.9%		Ki [1]: 420 nM
CCC(C)(C)C(=O)C(=O)N1CCC[C@H]1C(=O)NC	16.1%		
CCC(C)(C)C(=O)C(=O)N1CCC[C@H]1C(=O)SCCCc1ccc(OC)cc1			EC50 (Gallus gallus): 0.01 nM
CCC(C)(C)C(=O)C(=O)N1CCC[C@H]1C(=O)SCCc1ccccc1	31.4%	66%	EC50 (Gallus gallus): 0.77 nM
O=C(C(=O)N1CCC[C@H]1C(=O)SCCc1ccccc1)C1CCCC1		41%	
CCC(C)(C)C(=O)C(=O)N1CCCC[C@H]1C(=O)NCCCc1ccccc1	65.3%		
CCC(C)(C)C(=O)C(=O)N1CCCC[C@H]1C(=O)SCCc1ccccc1		73%	
CCC(C)(C)C(=O)C(=O)N1CCC[C@H]1C(=O)OCCCc1cccnc1 [GPI-1046]		43%	Recovery (Mus musculus [4]): 35%; EC50 (Gallus gallus): 0.06 nM
CCC(C)(C)C(=O)C(=O)N1CCC[C@H]1C(=O)NCCc1ccccc1	44.1%		
O=C(C(=O)N1CCCC[C@H]1C(=O)NCCCCc1ccccc1)c1ccccc1	18.7%		
CCC(C)(C)C(=O)C(=O)N1CCCC[C@H]1C(=O)NC	31.6%		
CC(C)(C)C(=O)C(=O)N1CCC[C@H]1C(=O)NCCCc1ccccc1	28.1%		
O=C(C(=O)N1CCC[C@H]1C(=O)SCCCc1ccccc1)C1CCCCC1		52%	
CCC(C)(C)C(=O)C(=O)N1CCC[C@H]1C(=O)SCCCc1ccccc1		72%	EC50 (Gallus gallus): < 0.01 nM
CCC(C)(C)C(=O)C(=O)N1CCCC[C@H]1C(=O)NCCCCc1cccnc1	29.4%		
CCC(C)(C)C(=O)C(=O)N1CCCC[C@H]1C(=O)SCCC(c1ccccc1)c1ccccc1	72%	81%	

SMILES	Recovery (Mus musculus [2])	Recovery (Mus musculus [3])	also measured
CCC(C)(C)C(=O)C(=O)N1CCC[C@H]1C(=O)NCCCc1ccc(O)cc1	1.8%		
CCC(C)(C)C(=O)C(=O)N1CCC[C@H]1C(=O)SCCCCc1ccccc1		48%	
CCC(C)(C)C(=O)C(=O)N1CCC[C@H]1C(=O)N(C)CCCc1ccccc1	20.5%		
CC(C)(C)C(=O)C(=O)N1CCCC[C@H]1C(=O)NCCCCc1ccccc1	44.9%		
CCC(C)(C)C(=O)C(=O)N1CCC[C@H]1C(=O)NC(CCc1ccccc1)CCc1ccccc1	6.9%		
CCC(C)(C)C(=O)C(=O)N1CCC[C@H]1C(=O)NCCCCc1ccccc1	50.1%		
CCC(C)(C)C(=O)C(=O)N1CCC[C@H]1C(=O)SCCC(c1ccccc1)c1ccccc1		39%	Recovery (Mus musculus [5]): 37%
CCC(C)(C)C(=O)C(=O)N1CCC[C@H]1C(=O)NCCCc1cccnc1	4.7%		Ki [1]: 820 nM
CCC(C)(C)C(=O)C(=O)N1CCC[C@H]1C(=O)SCCCc1ccc2ccccc2c1		36%	Recovery (Mus musculus [5]): 10%
CCC(C)(C)C(=O)C(=O)N1CCCC[C@H]1C(=O)NCCCCc1ccccc1	54.1%		
CCC(C)(C)C(=O)C(=O)N1CCCC[C@H]1C(=O)NCCCCc1ccc(O)cc1	60.4%		
CCC(C)(C)C(=O)C(=O)N1CCCC[C@H]1C(=O)SCCCc1ccccc1			Recovery (Mus musculus [6]): 30%
CCC(C)(C)C(=O)C(=O)N1CCC[C@H]1C(=O)SCCCc1ccc(C(F)(F)F)cc1		71%	Recovery (Mus musculus [5]): 34%
CCC(C)(C)C(=O)C(=O)N1CCC[C@H]1C(=O)SCCCc1cccnc1		31%	
CCC(C)(C)C(=O)C(=O)N1CCCC[C@H]1C(=O)NCCCCCc1ccccc1	37.4%		
CCC(C)(C)C(=O)C(=O)N1CCC[C@H]1C(=O)NCCCc1ccccc1			Ki [1]: 1100 nM; Recovery (Mus musculus [5]): 39%
